Assay results: patent publication US9493522B2, “Discovery of candidate biomarkers of in vivo apoptosis by global profiling of caspase cleavage sites” (THE REGENTS OF THE UNIVERSITY OF CALIFORNIA, priority 2008, dated 2016)
Residues, ends and D or L forms follow the SMILES beside them. *: point of attachment. Cbz = O=C(OCc1ccccc1)*; CH2F = FC*

Experiments:
[1] = test system: Jurkat cells; assay: Immunoblotting of caspase substrate proteolysis during apoptosis; assay type: cell-based, human
Description: Jurkat cells at a density of 1×10^6 cells/ml were treated with etoposide (50 μM) for 0, 2, 4, 8, 12, and 24 hours prior to harvesting. Harvested cells were pelleted at 2,000×g and 25° C. for 5 minutes, washed twice with phosphate buffered saline, and lysed at a concentration of 2×10^7 cells/ml in 1.0% SDS, phosphate buffered saline, 100 μM Z-VAD-FMK, 100 μM E-64, 1 mM PMSF, 1 mM AEBSF, 5 mM EDTA, and 10 mM sodium butyrate. Whole cell lysates were sonicated to shear genomic DNA, normalized to a protein concentration of approximately 2 mg/ml, as determined by BCA assay (Pierce). Cell lysates for each apoptotic timepoint were then analyzed by SDS-PAGE and Western blot. Mouse monoclonal anti-caspase-3 (#9668) and rabbit polyclonal anti-HDAC3 (#2632) antibodies were purchased from Cell Signaling Technology. Mouse monoclonal anti-DFF45 (#611036) antibody was purchased from BD Transduction Laboratories. Goat polyclonal anti-N-Cor (#sc-1611) and rabbit polyclonal anti-HDAC7 (#sc-11412) antibodies were purchased from Santa Cruz Biotechnology. Rabbit polyclonal anti-TBLR1 (#A300-408A), rabbit polyclonal anti-SHARP (#A301-119A), and rabbit polyclonal anti-RBBP7 (#A300-959A) antibodies were purchased from Bethyl Laboratories. Rabbit polyclonal anti-SMRTe (#06-891) antibody was purchased from Millipore. Western blots were imaged using SuperSignal West Femto Substrate (Pierce) with a Fluor Chem SP imager (Alpha Innotech). DNA fragmentation of whole cell DNA was analyzed by agarose gel with the Apoptotic DNA Ladder Kit (Roche).

[2] = test system: Jurkat cells; assay: Subtiligase N-terminal labeling and LC/MS/MS degradomic analysis of apoptotic Jurkat cells; assay type: cell-based, human; details: Jurkat cells treated with etoposide (50 μM, 12 hours)
Description: Normal cells were harvested for experiments at a density of 1×10^6 cells/ml. For apoptotic samples, cells at a density of 1×10^6 cells/ml were treated with etoposide (50 μM) for 12 hours prior to harvesting. Harvested cells (0.1 to 1 billion) were pelleted at 2,000×g and 25° C. for 5 minutes, washed twice with phosphate buffered saline, and lysed at a typical concentration of 2×10^8 cells/ml in 1.0% TRITON X-100 detergent, 100 mM BICINE pH 8.0, 100 μM Z-VAD-FMK, 100 μM E-64, 1 mM PMSF, 1 mM AEBSF, and 5 mM EDTA. […] Clarified supernatant was immediately used in ligation reactions at a protein concentration of approximately 20 mg/ml, as determined by Bradford assay (Bio-Rad).
Subtiligase (1 μM), biotinylated peptide ester (1 mM), and DTT (2 mM) were added to either control or apoptotic cell lysate. Ligation reactions were typically left to proceed at room temperature for 60 minutes. Samples were then denatured by direct addition of solid guanidine hydrochloride to a final concentration of 6 M, reduced by addition of neutralized TCEP (2 mM), heated at 95° C. for 15 minutes, cooled to room temperature, and alkylated by addition of iodoacetamide (6 mM) and incubation at room temperature in the dark for 1 hour. […]

[3] = Jurkat cells, 50 μM etoposide, FIG. 5A

Structure (SMILES)	Cleavage of representative substrates HDAC7, Ku80, RCOR2, TBLR1, and UBP36 in presence of caspase inhibitor ([1]; etoposide-treated Jurkat cells, FIG. 5B)	N-termini identified in apoptotic cells derived from P1 aspartate cleavages ([2]; large-scale (2D LC/MS/MS) experiments) [%]	N-termini identified in apoptotic cells derived from P1 aspartate cleavages ([2]; small-scale (1D LC/MS/MS) experiments) [%]	Proteolysis of CCTδ, Ku80, LCOR, and RBBP7 (time course, immunoblot) [1, 3]	Proteolysis of HDAC6, HDAC7, N-CoR, RCOR2, SHARP, TBLR1, UBP5, and UBP36 (time course, immunoblot) [1, 3]
COC(=O)C[C@H](NC(=O)[C@H](C)NC(=O)[C@@H](NC(=O)OCc1ccccc1)C(C)C)C(=O)CF [Z-VAD(OMe)-fmk] (Cbz-Val-Ala-Asp(OMe)-CH2F)	blocked	–	–	–	–
COc1cc([C@@H]2c3cc4c(cc3[C@@H](O[C@@H]3O[C@@H]5CO[C@@H](C)O[C@H]5[C@H](O)[C@H]3O)[C@H]3COC(=O)[C@H]23)OCO4)cc(OC)c1O [etoposide]	–	43	43	partial cleavage	full cleavage
